Experimental data reported in patent US20240294587A1, “K-RAS INHIBITOR” (THE JOHNS HOPKINS UNIVERSITY, priority 2021, published 2024).

Legend:
[1] = system: S473 AKT phosphorylation in HEK293 cells; assay: Insulin-induced AKT phosphorylation in HEK293 cells; assay type: cell-based, human; details: peptide included during serum starvation and insulin stimulation (100 nM, 30 min), dose-dependent
Procedure: (§1) FIG. 3A is the amino acid sequence of the C-terminal region of K-Ras 4B—the helix α5 is highlighted and K-tetracosapeptide is underlined. Its predicted structure is shown on the right: positively- and negatively-charged surfaces are highlighted. FLAG-tagged GTP-bound K-Ras 4BG12V was incubated with GDP-loaded GFP-RhoA in the presence of K-tetracosapeptide (K-TC) or a scrambled peptide (50, 250, and 1250 nM). GFP-RhoA was pulled down using GFP-Trap beads. The pellets were analyzed by Western blotting using antibodies to FLAG and GFP (FIG. 3B) and quantified by band intensity (FIG. 3C). Bars are mean±SD (n=3). FIG. 3D is a schematic of the interaction of K-Ras 4B and RhoA in the presence of K-tetracosapeptide (K-TC) or a scrambled peptide. […] S473 AKT phosphorylation was analyzed by Western blotting (FIG. 3E) and band intensity of phospho-AKT relative to total AKT was quantified (FIG. 3F). Bars are mean±SD (n=3). After serum starvation, HEK293 cells were stimulated by insulin. […] S473 AKT phosphorylation was analyzed by Western blotting. (FIG. 3G) and band intensity was quantified (FIG. 3H). […]
Insulin-induced AKT phosphorylation in cells HEK293 cells and differentiated 3T3-L1 adipocytes were washed with serum-free DMEM and incubated with serum-free DMEM for 5 h. […] After clarification, cell lysates were analyzed by Western blotting.

[2] = system: phosphorylation of AKT and TBC1D4 in 3T3-L1 adipocytes; assay: Insulin-induced phosphorylation of AKT and TBC1D4 in 3T3-L1 adipocytes; assay type: cell-based, mouse; details: differentiated WT 3T3-L1 adipocytes; peptide pre-treatment 5 h, 100 nM insulin 30 min
Procedure: (§2) Differentiation into adipocytes was induced in WT 3T3-L1 cells and RhoA-KO 3T3-L1 cells expressing the indicated FLAG-RhoA proteins. Differentiation was analyzed Western blotting using anti-adiponectin antibodies (FIG. 6A) and band intensity was quantified (FIG. 6B). Bars are mean f SD (n=3). FIG. 6C is images of WT and RhoA-KO 3T3-L1 cells stained with oil red O before and after induction of the differentiation. FIG. 6D is images RhoA-KO 3T3-L1 cells expressing the indicated RhoA proteins and analyzed by oil red O stain after induction of differentiation. Differentiated WT 3T3-L1 adipocytes were stimulated with insulin after serum starvation in the presence of TAT-K-tetracosapeptide or a TAT peptide. Phosphorylation of AKT and TBC1D4 was analyzed by Western blotting (FIG. 6E) and quantification of band intensity (FIG. 6F). Bars are mean±SD (n=3). […]
(§3) Insulin-induced AKT phosphorylation and translocation of GLUT4 in 3T3-L1 adipocytes To examine AKT phosphorylation, differentiated WT 3T3-L1 adipocytes were incubated in serum-free DMEM medium for 5 h and stimulated with 100 nM insulin for 30 min. […] After clarification, cell lysates were analyzed by Western blotting using antibodies to AKT (Cell Signaling, 9272) and phospho-AKT (Serine 473) (Cell Signaling, 9271). […]

[3] = system: transport of GLUT4-GFP to the plasma membrane in 3T3-L1 adipocytes; assay: Insulin-induced translocation of GLUT4-GFP in 3T3-L1 adipocytes (confocal microscopy); assay type: cell-based, mouse; details: 3T3-L1 adipocytes carrying GLUT4-GFP; insulin 30 min after serum starvation
Procedure: as §2, §3

[4] = target: T1, interaction of purified GTP-K-Ras 4B and GDP-RhoA (Homo sapiens, UniProt P61586, G12V); assay: In vitro protein-protein interaction assay (GFP-Trap pull-down, Western blotting); assay type: binding; details: peptide 50, 250 and 1250 nM, dose-dependent, FLAG-K-Ras 4BG12V pulled down with GFP-RhoA
T1 construct: made in house; host or cells: Dictyostelium cells
Procedure: as §1, with “(n=3).” for “(n=3). FIG. 3D is a schematic of the interaction of K-Ras 4B and RhoA in the presence of K-tetracosapeptide (K-TC) or a scrambled peptide.”, “3F).” for “3F). Bars are mean±SD (n=3). After serum starvation, HEK293 cells were stimulated by insulin.”
FLAG-tagged K-Ras4A and K-Ras 4B were eluted from anti-FLAG beads by incubation with 1 M arginine at room temperature for 5 min. Amounts of purified proteins were quantified on CBB-stained SDS-PAGE gels using ImageJ software with BSA as a standard. […] GFP-Trap beads were washed three times in 1 mM MgCl2, 100 mM potassium acetate, 25 mM HEPES (pH 7.4), and bound proteins were analyzed by Western blotting.

[5] = target: T2, KARATE (mTORC2 mixed with GTP-bound K-Ras 4BG12V and GDP-loaded RhoA) (Homo sapiens, UniProt P61586, G12V); assay: In vitro reconstitution of mTORC2-mediated AKT phosphorylation; assay type: biochemical; details: S473 AKT phosphorylation by Western blotting; peptide 50, 250 and 1250 nM
T2 construct: made in house; host or cells: K-Ras 4B G12V and RhoA from Dictyostelium cells; AKT1 purchased (Sigma, 14-279)
Procedure: as §1, with “(n=3).” for “(n=3). FIG. 3D is a schematic of the interaction of K-Ras 4B and RhoA in the presence of K-tetracosapeptide (K-TC) or a scrambled peptide.”, “3F).” for “3F). Bars are mean±SD (n=3). After serum starvation, HEK293 cells were stimulated by insulin.”
In vitro reconstitution of mTORC2-mediated AKT phosphorylation The kinase activity of mTORC1 and mTORC2 was measured as described previously by Huang, Sarbassov dos, and Senoo (Methods Mol Biol 821, 75-86(2012), Methods Mol Biol 821, 59-74(2012), and Nat Cell Biol 21, 867-878(2019), respectively) with some modifications. […] AKT phosphorylation was detected by Western blotting with anti-phospho-AKT (serine 473) antibodies (Cell Signaling, 9271).

T1 sequence (P61586 whole entry G12V): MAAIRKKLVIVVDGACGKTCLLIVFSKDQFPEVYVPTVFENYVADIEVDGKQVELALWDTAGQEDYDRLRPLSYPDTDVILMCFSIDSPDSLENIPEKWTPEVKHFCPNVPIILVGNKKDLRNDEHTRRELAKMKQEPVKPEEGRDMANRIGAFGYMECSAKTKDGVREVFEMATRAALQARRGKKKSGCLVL
T2 sequence (P61586 whole entry G12V): as above

Sequence	effect on insulin-stimulated AKT phosphorylation in cells [1]	effect on insulin-induced phosphorylation of AKT [2]	effect on insulin-induced phosphorylation of TBC1D4 [2]	effect on insulin-induced transport of GLUT4-GFP to the plasma membrane [3]	effect on the interaction of purified GTP-K-Ras 4B and GDP-RhoA [4]	effect on AKT phosphorylation in vitro [5]
GRKKRRQRRRPQGVDDAFYTLVREIRKHKEKMSKDG [TAT-K-tetracosapeptide, K-tetracosapeptide fused to a cell-permeable TAT peptide]	blocked in a dose-dependent manner	blocked	blocked	strongly inhibited	–	–
GVDDAFYTLVREIRKHKEKMSKDG [K-tetracosapeptide, peptide of 24 amino acids corresponding to the helix α5 in K-Ras 4B]	–	–	–	–	greatly decreased	blocked
